According to US7511065B2, “Mixed lineage kinase modulators” (Eli Lilly and Company, priority 2002, dated 2009):

These compounds were tested against T1, MLK-7 (Homo sapiens, UniProt Q9NYL2) (assay: In vitro assay of purified MLK-7 kinase activity (33P transfer from ATP to myelin basic protein)). Settings: recombinant GST-tagged MLK-7 at 1 nm, 30 uM ATP, 5 uM MBP substrate, 2 hours room temperature; read-out: MLK7 IC50.
T1 construct: GST; His tag; made in house; host or cells: Sf9 insect cells (baculovirus, pVL1392)
Type: biochemical
Text: In Vitro Assay of Purified Mixed Lineage Kinase 7 (MLK-7) Activity:
Briefly, recombinant glutathione-s-transferase (GST) tagged MLK-7 is expressed in Sf9 cells using a recombinant baculovirus created using baculovirus transfer vector pVL1392 modified to contain a GST and histidine tag. The recombinant protein is purified over a glutathione column and subsequently used for in vitro kinase assays with myelin basic protein (MBP) as the substrate for phosphorylation. The in vitro kinase reaction is run with recombinant MLK-7 at 1 nm and various concentrations of test compound in a reaction mixture containing 2 mM DTT, 30 uM ATP, 5 mM MgCl2, 5 uM MBP, 4% DMSO, 5 uCi 33P in 44 mM HEPES, (pH 7.4). The reaction is carried out for 2 hours at room temperature and then stopped by the addition of phosphoric acid to 5.5%. The phosphorylated MBP is collected on a filter and radioactivity associated with the membrane measured using a scintillation counter. Inhibitors are identified by the ability to reduce the transfer of radioactive phosphate from ATP to MBP compared to controls run without test compound.
IC50 values, defined as the concentration of test compound required to decrease the transfer of radioactive phosphate from ATP to MBP by 50%, are then determined. Ki values (which refers to the dissociation constant of an enzyme-antagonist complex and serves as an index of ligand binding) for each respective test compound can also be calculated by application of the Cheng-Prusoff equation as described in Cheng et al., Relationship Between The Inhibition Constant (Ki) and The Concentration of Inhibitor Which Causes 50% Inhibition (IC50) of an Enzymatic Reaction, Biochem. Pharmacol., 22: […]; (1973).
Representative compounds of the present invention have an IC50 in the MLK-7 kinase assay of ≦10,000 nM Table I (see infra.) provides IC50 data from the afore mentioned MLK-7 kinase assay for a representative sample of the exemplified compounds of the present invention.

Compound	IC50 [nM]
2-[4-(2-Pyridin-2-yl-5,6-dihydro-4H-pyrrolo[1,2-b]pyrazol-3-yl)quinolin-7-yl]phenyl}benzamide Trifluoroacetic Acid [Example 29]	≤ 10000
4-[4-(2-Pyridin-2-yl-5,6-dihydro-4H-pyrrolo[1,2-b]pyrazol-3-yl]phenylamine Ditrifluoroacetic Acid [Example 10]	≤ 100
5-[4-(2-pyridin-2-yl-5,6-dihydro-4H-pyrrolo[1,2-b]pyrazol-3-yl)-7-pyrimidin-5-yl-quinolin-7-yl]pyrimidin-2-ylamine Difluoroacetic Acid [Example 89]	≤ 1000
7-(3,5-Dichlorophenyl)-4-(2-Pyridin-2-yl-5,6-dihydro-4H-pyrrolo[1,2-b]pyrazol-3-yl)quinoline Trifluoroacetic Acid [Example 31]	≤ 1000
7-(3-Nitrophenyl)-4-(2-pyridin-2-yl-5,6-dihydro-4H-pyrrolo[1,2-b]pyrazol-3-yl)quinoline Trifluoroacetic Acid [Example 49]	≤ 100
7-(4-Benzo[b]thiophen-3-yl-phenyl)-4-(2-pyridin-2-yl-5,6-dihydro-4H-pyrrolo[1,2-b]pyrazol-3-yl)-quinoline Trifluoroacetic Acid [Example 54]	≤ 1000
7-(4-Methyl-3-nitro-phenyl)-4-(2-pyridin-2-yl-5,6-dihydro-4H-pyrrolo[1,2-b]pyrazol-3-yl)-quinoline Trifluoroacetic Acid [Example 52]	≤ 100
CC(C)(C)SCCNC(=O)c1ccc(-c2ccc3c(-c4c(-c5ccccn5)nn5c4CCC5)ccnc3c2)cc1 (racemic) [Example 127, (rac) N-(2-tert-Butylsulfanyl-ethyl)-4-[4-(2-pyridin-2-yl-5,6-dihydro-4H-pyrrolo[1,2-b]pyrazol-3-yl)-quinolin-7-yl]-benzamide]	≤ 1000
O=C(NC1CCS(=O)(=O)C1)c1ccc(-c2ccc3c(-c4c(-c5ccccn5)nn5c4CCC5)ccnc3c2)cc1 (racemic) [Example 129, (rac)-N-(1,1-Dioxo-tetrahydro-1λ^6-thiophen-3-yl)-4-[4-(2-pyridin-2-yl-5,6-dihydro-4H-pyrrolo[1,2-b]pyrazol-3-yl)-quinolin-7-yl]-benzamide]	≤ 100
Cc1csc(-c2ccc3c(-c4c(-c5ccccn5)nn5c4CCC5)ccnc3c2)c1 [Example 2, 7-(4-methylthiophen-2-yl)-4-(2-pyridin-2-yl-5,6-dihydro-4H-pyrrolo[1,2-b]pyrazol-3-yl)quinoline Trifluoroacetic Acid]	≤ 100
CC(=O)Nc1ccc(-c2ccc3c(-c4c(-c5ccccn5)nn5c4CCC5)ccnc3c2)cc1 [Example 3]	≤ 100
c1ccc(-c2ccc3c(-c4c(-c5ccccn5)nn5c4CCC5)ccnc3c2)cc1 [Example 4, 7-Phenyl-4-(2-pyridin-2-yl-5,6-dihydro-4H-pyrrolo[1,2-b]pyrazol-3-yl)quinoline Trifluoroacetic Acid]	≤ 100
Oc1ccccc1-c1ccc2c(-c3c(-c4ccccn4)nn4c3CCC4)ccnc2c1 [Example 5]	≤ 1000
Oc1cccc(-c2ccc3c(-c4c(-c5ccccn5)nn5c4CCC5)ccnc3c2)c1 [Example 6, 3-[4-(2-Pyridin-2-yl-5,6-dihydro-4H-pyrrolo[1,2-b]pyrazol-3-yl)quinolin-7-yl]phenol Trifluoroacetic Acid]	≤ 100
Oc1ccc(-c2ccc3c(-c4c(-c5ccccn5)nn5c4CCC5)ccnc3c2)cc1 [Example 7, 4-[4-(2-Pyridin-2-yl-5,6-dihydro-4H-pyrrolo[1,2-b]pyrazol-3-yl)quinolin-7-yl]phenol Trifluoroacetic Acid]	≤ 100
Nc1ccccc1-c1ccc2c(-c3c(-c4ccccn4)nn4c3CCC4)ccnc2c1 [Example 8, 2-[4-(2-Pyridin-2-yl-5,6-dihydro-4H-pyrrolo[1,2-b]pyrazol-3-yl)quinolin-7-yl]phenylamine Ditrifluoroacetic Acid]	≤ 1000
Nc1cccc(-c2ccc3c(-c4c(-c5ccccn5)nn5c4CCC5)ccnc3c2)c1 [Example 9]	≤ 100
Clc1cccc(-c2ccc3c(-c4c(-c5ccccn5)nn5c4CCC5)ccnc3c2)c1 [Example 11, 7-(3-Chlorophenyl)-4-(2-Pyridin-2-yl-5,6-dihydro-4H-pyrrolo[1,2-b]pyrazol-3-yl)quinoline Trifluoroacetic Acid]	≤ 100
Clc1ccc(-c2ccc3c(-c4c(-c5ccccn5)nn5c4CCC5)ccnc3c2)cc1 [Example 12, 7-(4-Chlorophenyl)-4-(2-pyridin-2-yl-5,6-dihydro-4H-pyrrolo[1,2-b]pyrazol-3-yl)quinoline Trifluoroacetic Acid]	≤ 100
O=[N+]([O-])c1ccc(-c2ccc3c(-c4c(-c5ccccn5)nn5c4CCC5)ccnc3c2)cc1 [Example 14, 7-(4-Nitrophenyl)-4-(2-pyridin-2-yl-5,6-dihydro-4H-pyrrolo[1,2-b]pyrazol-3-yl)quinoline Trifluoroacetic Acid]	≤ 100
CS(=O)(=O)Nc1cccc(-c2ccc3c(-c4c(-c5ccccn5)nn5c4CCC5)ccnc3c2)c1 [Example 15, N-{3-[4-(2-Pyridin-2-yl-5,6-dihydro-4H-pyrrolo[1,2-b]pyrazol-3-yl)-quinolin-7-yl]-phenyl}methanesulfomamide Trifluoroacetic Acid]	≤ 100
CS(=O)(=O)Nc1ccc(-c2ccc3c(-c4c(-c5ccccn5)nn5c4CCC5)ccnc3c2)cc1 [Example 16, N-{4-[4-(2-Pyridin-2-yl-5,6-dihydro-4H-pyrrolo[1,2-b]pyrazol-3-yl)quinolin-7-yl]phenyl}methanesulfonamide Trifluoroacetic Acid]	≤ 100
CCOc1ccccc1-c1ccc2c(-c3c(-c4ccccn4)nn4c3CCC4)ccnc2c1 [Example 17, 7-(2-Ethoxyphenyl)-4-(2-pyridin-2-yl-5,6-dihydro-4H-pyrrolo[1,2-b]pyrazol-3-yl)quinoline Trifluoroacetic Acid]	≤ 10000
CCOc1cccc(-c2ccc3c(-c4c(-c5ccccn5)nn5c4CCC5)ccnc3c2)c1 [Example 18, 7-(3-Ethoxyphenyl)-4-(2-pyridin-2-yl-5,6-dihydro-4H-pyrrolo[1,2-b]pyrazol-3-yl)quinoline Trifluoroacetic Acid]	≤ 100
CCOc1ccc(-c2ccc3c(-c4c(-c5ccccn5)nn5c4CCC5)ccnc3c2)cc1 [Example 19, 7-(4-Ethoxyphenyl)-4-(2-pyridin-2-yl-5,6-dihydro-4H-pyrrolo[1,2-b]pyrazol-3-yl)quinoline Trifluoroacetic Acid]	≤ 100
COc1ccc(-c2ccc3c(-c4c(-c5ccccn5)nn5c4CCC5)ccnc3c2)cc1 [Example 20, 7-(4-Methoxyphenyl)-4-(2-pyridin-2-yl-5,6-dihydro-4H-pyrrolo[1,2-b]pyrazol-3-yl)quinoline Trifluoroacetic Acid]	≤ 100
Cc1cc(-c2ccc3c(-c4c(-c5ccccn5)nn5c4CCC5)ccnc3c2)ccc1F [Example 21, 7-(4-Fluoro-3-methylphenyl)-4-(2-pyridin-2-yl-5,5-dihydro-4H-pyrrolo[1,2-b]pyrazol-3-yl)quinoline Trifluoroacetic Acid]	≤ 1000
Cc1cc(F)ccc1-c1ccc2c(-c3c(-c4ccccn4)nn4c3CCC4)ccnc2c1 [Example 22, 7-(4-Fluoro-2-methylphenyl)-4-(2-pyridin-2-yl-5,6-dihydro-4H-pyrrolo[1,2-b]pyrazol-3-yl)quinoline Trifluoroacetic Acid]	≤ 1000
